In patent US8013144B2, “hnRNP K expression-inhibiting compound and siRNA sequence thereof” (Chang Gung University, priority 2009, dated 2011):

Tested on: NPC-TW02 and NPC-TW02/TP
Assay: cytotoxicity assay with 5′-DFUR, apoptosis assay (annexin V)
Type: cell-based
Details: TP over-expression, 72 hours
Description: Refer to FIG. 1A and FIG. 1B. A cell line of nasopharyngeal cancer NPC-TW02/TP is established to stably express exogenous TP. First, the TP-expression carrier pcDNA3.1-PT is transfected to the cell line. Next, the cell line is screened and then cultivated in a culture solution having 500 μg/ml G418. Next is performed a cytotoxicity assay, wherein NPC-TW02 and NPC-TW02/TP are respectively processed with 5′-DFUR (a product of Sigma-Aldrich, St. Louis, Mo., USA). Next, the cell lines are further cultivated for 72 hours. Next, the cell membranes are everted to expose phosphatidylserine. Then, phosphatidylserine is analyzed with the Vybrant® Apoptosis Assay Kit #2 (a product of Invitrogen).
Firstly, 2×10^5 cells are taken out and washed with PBS. Next, a buffer solution (10 mM HEPES, 140 mM NaCl, 2.5 mM CaCl2, pH 7.4) is used to adjust the solution to have a cell concentration of 2×10^6/mL. Next, 5 μl Alexa Fluor® 488 annexin V is added into […], and then the cell suspension reacts at an ambient temperature for 15 minutes. Next, the cell specimens (10000 events) are analyzed with a flow cytometer (a product of Becton Dickinson), as shown in FIG. 3. […] Then, phosphatidylserine is analyzed with the Vybrant® Apoptosis Assay Kit #2 (a product of Invitrogen).

C[C@H]1O[C@@H](n2cc(F)c(=O)[nH]c2=O)[C@H](O)[C@@H]1O [5′-DFUR, 5-fluoro-5′-deoxyuridine]
sensitivity of nasopharyngeal cancer cells to 5′-DFUR (apoptosis): more sensitive
